This is an account of results in patent US7612087B2, “Heterocyclic compounds as inhibitors of beta-lactamases” (Novexel, priority 2002, dated 2009).

Test [1] has as its target T1, β-lactamase TEM1 (Escherichia coli, UniProt P62593).
T1 construct: The β-lactamases are isolated from bacterial strains which are resistant to penicillins and cephalosporins; endogenous in cells; host or cells: E. coli 250HT21 (natural producer; French-press lysate, 100,000 g supernatant)
The test is described as follows: Inhibition of isolated β-lactamase Tem-1 (Nitrocefin hydrolysis). It counts as biochemical, E.coli 250HT21. Particulars: 100 μM Nitrocefin, 50 mM sodium phosphate buffer pH7.0, 37° C. In short, it runs like this:
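TEM-1 from soluble extract of E. coli 250HT21, normalized enzyme, 100 μM Nitrocefin in 50 mM sodium phosphate pH 7.0 at 37 °C. Initial-rate hydrolysis read kinetically at 485 nm, with and without 5 min enzyme–inhibitor preincubation. CI50 from 6 or 8 concentrations in duplicate.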

Test [2] relates to E. coli 250HT21 (Tem1). The experiment in a line: MIC, micro-dilution in liquid medium, β-lactamine with product at 5 mg/l. Type of test: cell-based. The note with it: compound at 5 mg/l, 24 hours at 37° C.; for MIC of Piperacillin in combination with the compound: Trial 2, 250HT21 Tem1. In short, it runs like this: (§1)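 β-Lactamine was serially diluted in liquid medium with the test product held constant at 5 mg/l, then each dilution was inoculated with bacteria. After 24 hours at 37° C, the lowest concentration showing no bacterial growth was taken as the MIC, in mg/l.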
In general terms: Broth dilution looks for growth in wells or tubes with falling amounts of substance.

For test [3], the system named is E. coli 250HT22 (Tem2). Described as above. Type of test: cell-based. The note with it: compound at 5 mg/l, 24 hours at 37° C.; for MIC of Piperacillin in combination with the compound: Trial 3, 250HT22 Tem2. The gist of the method: as §1
Test [4] relates to Serratia 301HT6. The description is as above. Particulars: compound at 5 mg/l; Trial 10, 301HT6 Serratia; 24 hours at 37° C. Type of test: cell-based. In short, it runs like this: as §1
The test system of test [5] is E. cloacae 293HT6 (Class C). The description is as above. Type of test: cell-based. The note with it: compound at 5 mg/l, 24 hours at 37° C.; for MIC of Piperacillin in combination with the compound: Trial 9, 293HT6 Class. The gist of the method: as §1
In test [6] the test system is P. aeruginosa 391HT7 (PSE). Described as above. Type of test: cell-based. The note with it: compound at 5 mg/l, 24 hours at 37° C.; for MIC of Piperacillin in combination with the compound: Trial 11, 391HT7 PSE. In short, it runs like this:
as §1

The subject of test [7] is E. coli 250HT26 (SHV1). Described as above. It counts as cell-based. Particulars: compound at 5 mg/l, 24 hours at 37° C.; for MIC of Piperacillin in combination with the compound: Trial 6, 250HT26 SHV1. In short, it runs like this: as §1
Test [8] deals with P. aeruginosa 391HT8 (PSE). Described as above. Type of test: cell-based. The note with it: compound at 5 mg/l, 24 hours at 37° C.; for MIC of Piperacillin in combination with the compound: Trial 12, 391HT8 PSE. In short, it runs like this: as §1
Test [9] has as its system S. aureus 011GO66 (PeniR). Described as above. Particulars: compound at 5 mg/l, 24 hours at 37° C.; for MIC of Piperacillin in combination with the compound: Trial 1, 011GO66 peniR. Type of test: cell-based. The gist of the method: as §1
Test [10] has as its system E. coli 250HT23 (Class D). The test is described as above. Type of test: cell-based. Particulars: compound at 5 mg/l, 24 hours at 37° C.; for MIC of Piperacillin in combination with the compound: Trial 8, 250HT23 Class D. The gist of the method:
as §1

In test [11] the test system is E. coli 250SJ1 (Tem7). The description is as above. Type of test: cell-based. Particulars: compound at 5 mg/l, 24 hours at 37° C.; for MIC of Piperacillin in combination with the compound: Trial 5, 250SJ1 Tem7. In short, it runs like this: as §1
The subject of test [12] is E. coli 250BE1 (SHV4). Described as above. It counts as cell-based. Particulars: compound at 5 mg/l, 24 hours at 37° C.; for MIC of Piperacillin in combination with the compound: Trial 7, 250BE1 SHV4. In short, it runs like this:
as §1

Test [13] deals with E. coli 250CF1 (Tem3). The test is described as follows: microbe, parasite or virus in culture. It counts as cell-based. Particulars: compound at 5 mg/l, 24 hours at 37° C.; for MIC of Piperacillin in combination with the compound: Trial 4, 250CF1 Tem3. In short, it runs like this: as §1
The target in test [14] is T2, β-lactamase P99 (Enterobacter cloacae, UniProt P05364).
T2 construct: The β-lactamases are isolated from bacterial strains which are resistant to penicillins and cephalosporins; endogenous in cells; host or cells: Enterobacter cloacae 293HT6 (natural producer; French-press lysate, 100,000 g supernatant)
T2 sequence (P05364 21-381): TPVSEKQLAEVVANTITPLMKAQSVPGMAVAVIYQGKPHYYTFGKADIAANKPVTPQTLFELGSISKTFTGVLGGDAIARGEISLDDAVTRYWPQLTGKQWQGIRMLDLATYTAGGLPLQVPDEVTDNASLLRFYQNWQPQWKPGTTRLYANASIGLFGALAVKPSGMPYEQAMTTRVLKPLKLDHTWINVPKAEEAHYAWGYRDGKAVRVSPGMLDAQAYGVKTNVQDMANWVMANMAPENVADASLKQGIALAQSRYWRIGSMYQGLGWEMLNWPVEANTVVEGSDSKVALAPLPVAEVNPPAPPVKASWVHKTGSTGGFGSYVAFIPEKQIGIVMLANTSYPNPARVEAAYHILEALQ
The test is described as follows: biochemical. Particulars: 100 μM Nitrocefin, 50 mM sodium phosphate buffer pH7.0, 37° C.; read-out: IC50 nM/P99. In short, it runs like this:
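P99 β-lactamase, taken from the soluble fraction of an Enterobacter cloacae 293HT6 lysate, was assayed at 37° C. in 50 mM sodium phosphate buffer pH7.0 with 100 μM Nitrocefin as the chromogenic substrate. Hydrolysis was followed kinetically at 485 nm at initial speed, with and without a 5 mn enzyme–inhibitor preincubation. Inhibitors were tested at 6 or 8 concentrations in duplicate, and IC50 was fitted with GraFit.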

T1 sequence (P62593 24-286 limits assumed): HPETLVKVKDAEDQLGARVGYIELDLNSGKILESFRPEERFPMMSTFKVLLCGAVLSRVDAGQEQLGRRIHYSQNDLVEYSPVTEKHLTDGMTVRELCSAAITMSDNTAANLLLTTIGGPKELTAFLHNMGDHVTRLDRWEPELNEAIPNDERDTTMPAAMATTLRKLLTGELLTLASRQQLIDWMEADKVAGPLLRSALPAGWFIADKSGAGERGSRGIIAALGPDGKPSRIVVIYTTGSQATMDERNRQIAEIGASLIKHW

With `O=C(NCc1ccncc1)[C@H]1CC[C@@H]2CN1C(=O)N2OS(=O)(=O)[O-].[Na+]` (relative stereo) [Example 42, sodium salt of trans-7-oxo-N-[(4-pyridinyl)methyl]-6-(sulphooxy)-1,6-diazabicyclo[3.2.1]octane-2-carboxamide], the values for the IC50 in test [1] and in [14] were 25 nM and 70 nM, respectively. For the same compound, the “MIC of Cefotaxime in combination with the compound” value is “<=0.04 μg/ml” in [2] (Trial 2, 250HT21 E. coli Tem1); “<=0.04 μg/ml” in test [3] (Trial 3, 250HT22 E. coli Tem2); “<=0.04 μg/ml” in test [4]; 0.3 µg/mL in [5] (Trial 9, 293HT6 E. cloacae Class C); 20 µg/mL in test [6] (Trial 11, 391HT7 P. aeruginosa PSE); “<=0.04 μg/ml” in [7] (Trial 6, 250HT26 E. coli SHV1). In addition, the “MIC of Cefotaxime in combination with the compound” value in [8] (Trial 12, 391HT8 P. aeruginosa PSE) was 20 µg/mL; in test [9] (Trial 1, 011GO66 S. aureus PeniR) it was 2.5 µg/mL; in test [10] (Trial 8, 250HT23 E. coli Class D), “<=0.04 μg/ml”; in test [11] (Trial 5, 250SJ1 E. coli Tem7), “<=0.04 μg/ml”; in test [12] (Trial 7, 250BE1 E. coli SHV4), “<=0.04 μg/ml”; in test [13] (Trial 4, 250CF1 E. coli Tem3), “<=0.04 μg/ml”. The “MIC of Piperacillin in combination with the compound” value (“MIC of Piperacillin in combination” below) in test [2] was 1.2 µg/mL; in test [3], 2.5 µg/mL; in [4] it was 0.6 µg/mL; in test [5], 1.2 µg/mL; in [6], above 40 µg/mL; in test [7] it was 5 µg/mL. Moreover, the “MIC of Piperacillin in combination” value is above 40 µg/mL in [8]; 1.2 µg/mL in test [9]; 5 µg/mL in test [10]; 2.5 µg/mL in test [11]; 5 µg/mL in test [12]; 2.5 µg/mL in test [13].

For `NC(=O)Nc1cccc(NC(=O)[C@H]2CC[C@@H]3CN2C(=O)N3OS(=O)(=O)[O-])c1.[Na+]` (relative stereo) [Example 46, sodium salt of trans-N-[3-[(aminocarbonyl)amino]phenyl]-7-oxo-6-(sulphooxy)-1,6-diazabicyclo[3.2.1]octane-2-carboxamide], the results for the IC50 in test [1] and in test [14] were 26 nM and 70 nM, respectively. In addition, the “MIC of Piperacillin in combination” value is 5 µg/mL in test [2]; above 40 µg/mL in test [3]; 1.2 µg/mL in test [4]; above 40 µg/mL in [5]; above 40 µg/mL in test [6]; above 40 µg/mL in test [7]. In addition, the “MIC of Piperacillin in combination” value is above 40 µg/mL in [8]; 0.6 µg/mL in test [9]; 10 µg/mL in test [10]; above 40 µg/mL in test [11]; 40 µg/mL in test [12]; 2.5 µg/mL in test [13].
